We go through 15 molecules from US12497408B2, “Tetracyclic compounds and methods for the treatment of Zika virus infection” (priority 2021, dated 2025).

One test deals with ZIKV. Briefly: ZIKV reporter virus-based antiviral screening on Huh7 cells. Format: cell-based, Zika virus. Conditions: Huh7 cells infected with recombinant luciferase reporter ZIKV (MOI about 0.1), 48 hrs, luciferase signal; read-out: EC50. Put shortly:
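Huh7 cells in 2% FBS assay medium infected at MOI about 0.1 with Renilla or Nano luciferase ZIKV premixed with nine-point compound dilutions, 48 hrs at 37° C. Luciferase signal normalized to DMSO controls as 100%; viability optionally by CellTiter-Glo with Rlu virus.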
(Reporter assays use an easily measured gene product as a stand-in for the process of interest.)
The term EC50 denotes the concentration that produces a half-maximal response. Consider `COC(=O)N[C@H](C(=O)N1[C@@H](C)CC[C@H]1c1nc(Cl)c(-c2cc3c4c(c2)OCc2cc(-c5[nH]c([C@@H]6CC[C@H](C)N6C(=O)[C@@H](NC(=O)OC)C(C)(C)C(F)(F)F)nc5Cl)cc(c2-4)OC3)[nH]1)C(C)(C)C(F)(F)F` [Compound 34, dimethyl ((2S,2′S)-((2S,2′S,5S,5′S)-((5,10-dihydrochromeno[5,4,3-cde]chromene-2,7-diyl)bis(4-chloro-1H-imidazole-5,2-diyl))bis(2-methylpyrrolidine-5,1-diyl))bis(4,4,4-trifluoro-3,3-dimethyl-1-oxobutane-l,2-diyl))dicarbamate], for which the EC50 stood at 2.6 nM.

Staying with this test, now noted: Zika virus, Huh-7, 48 h, Huh7 cells infected with recombinant luciferase reporter ZIKV (MOI about 0.1), luciferase signal.
On to `COC(=O)N[C@H](C(=O)N1[C@H](c2ncc(-c3cc4c5c(c3)OCc3cc(-c6[nH]c([C@@H]7C[C@@H]8CCC[C@@H]8N7C(=O)[C@@H](NC(=O)OC)C(C)C)nc6Cl)cc(c3-5)OC4)[nH]2)C[C@@H]2CCC[C@@H]21)C(C)C` [Compound 30, methyl ((S)-1-((2S,3aS,6aS)-2-(4-chloro-5-(7-(2-((2S,3aS,6aS)-1-((methoxycarbonyl)-L-valyl)octahydrocyclopenta[b]pyrrol-2-yl)-1H-imidazol-5-yl)-5,10-dihydrochromeno[5,4,3-cde]chromen-2-yl)-1H-imidazol-2-yl)hexahydrocyclopenta[b]pyrrol-1(2H)-yl)-3-methyl-1-oxobutan-2-yl)carbamate], for which the half-maximal effective concentration (EC50) was 8 nM.

With `COC(=O)N[C@H](C(=O)N1[C@@H](C)CC[C@H]1c1nc(Cl)c(-c2cc3c4c(c2)OCc2cc(-c5[nH]c([C@@H]6CC[C@H](C)N6C(=O)[C@@H](NC(=O)OC)C(C)(C)C)nc5Cl)cc(c2-4)OC3)[nH]1)C(C)(C)C` [Compound 31, dimethyl ((2S,2′S)-((2S,2′S,5S,5′S)-((5,10-dihydrochromeno[5,4,3-cde]chromene-2,7-diyl)bis(4-chloro-1H-imidazole-5,2-diyl))bis(2-methylpyrrolidine-5,1-diyl))bis(3,3-dimethyl-1-oxobutane-1,2-diyl))dicarbamate], the concentration giving a half-maximal response (EC50) is 1.1 nM.

For `CC[C@@H](C)[C@H](NC(=O)OC)C(=O)N1CCC[C@H]1c1nc(Cl)c(-c2cc3c4c(c2)OCc2cc(-c5[nH]c([C@@H]6CCCN6C(=O)[C@@H](NC(=O)OC)[C@H](C)CC)nc5Cl)cc(c2-4)OC3)[nH]1` [Compound 32, dimethyl ((2S,2′S,3R,3′R)-((2S,2′S)-((5,10-dihydrochromeno[5,4,3-cde]chromene-2,7-diyl)bis(4-chloro-1H-imidazole-5,2-diyl))bis(pyrrolidine-2,1-diyl))bis(3-methyl-1-oxopentane-1,2-diyl))dicarbamate], the 50% effective concentration (EC50) was 1.1 nM.

As for `CC[C@@H](C)[C@H](NC(=O)OC)C(=O)N1[C@@H](C)CC[C@H]1c1nc(Cl)c(-c2cc3c4c(c2)OCc2cc(-c5[nH]c([C@@H]6CC[C@H](C)N6C(=O)[C@@H](NC(=O)OC)[C@H](C)CC)nc5Cl)cc(c2-4)OC3)[nH]1` [Compound 33, dimethyl ((2S,2′S,3R,3′R)-((2S,2′S,5S,5′S)-((5,10-dihydrochromeno[5,4,3-cde]chromene-2,7-diyl)bis(4-chloro-1H-imidazole-5,2-diyl))bis(2-methylpyrrolidine-5,1-diyl))bis(3-methyl-1-oxopentane-1,2-diyl))dicarbamate], the 50% effective concentration (EC50) was found to be 0.9 nM.

For `COC(=O)N[C@H](C(=O)N1[C@H](c2nc(Cl)c(-c3cc4c5c(c3)OCc3cc(-c6[nH]c([C@@H]7C[C@@H]8CCC[C@@H]8N7C(=O)[C@@H](NC(=O)OC)C(C)(C)C(F)(F)F)nc6Cl)cc(c3-5)OC4)[nH]2)C[C@@H]2CCC[C@@H]21)C(C)(C)C(F)(F)F` [Compound 35, dimethyl ((2S,2′S)-((2S,2′S,3aS,3a′S,6aS,6a′S)-((5,10-dihydrochromeno[5,4,3-cde]chromene-2,7-diyl)bis(4-chloro-1H-imidazole-5,2-diyl))bis(hexahydrocyclopenta[b]pyrrole-2,1(2H)-diyl))bis(4,4,4-trifluoro-3,3-dimethyl-1-oxobutane-1,2-diyl))dicarbamate], the EC50 worked out at 4.5 nM.

In the case of `CC[C@H](C)[C@H](NC(=O)OC)C(=O)N1[C@H](c2nc(Cl)c(-c3cc4c5c(c3)OCc3cc(-c6[nH]c([C@@H]7C[C@@H]8CCC[C@@H]8N7C(=O)[C@@H](NC(=O)OC)[C@@H](C)CC)nc6Cl)cc(c3-5)OC4)[nH]2)C[C@@H]2CCC[C@@H]21` [Compound 36, dimethyl ((2S,2′S,3S,3′S)-((2S,2′S,3aS,3a′S,6aS,6a′S)-((5,10-dihydrochromeno[5,4,3-cde]chromene-2,7-diyl)bis(4-chloro-1H-imidazole-5,2-diyl))bis(hexahydrocyclopenta[b]pyrrole-2,1(2H)-diyl))bis(3-methyl-1-oxopentane-1,2-diyl))dicarbamate], the concentration for a half-maximal effect (EC50) amounted to 4.3 nM.

Take `COC(=O)N[C@H](C(=O)N1[C@H](c2nc(Cl)c(-c3cc4c5c(c3)OCc3cc(-c6[nH]c([C@@H]7C[C@@H]8CCCC[C@@H]8N7C(=O)[C@@H](NC(=O)OC)C(C)C)nc6Cl)cc(c3-5)OC4)[nH]2)C[C@@H]2CCCC[C@@H]21)C(C)C` [Compound 37, dimethyl ((2S,2′S)-((2S,2′S,3aS,3a′S,7aS,7a′S)-((5,10-dihydrochromeno[5,4,3-cde]chromene-2,7-diyl)bis(4-chloro-1H-imidazole-5,2-diyl))bis(octahydro-1H-indole-2,1-diyl))bis(3-methyl-1-oxobutane-1,2-diyl))dicarbamate]: the concentration giving a half-maximal response (EC50) was determined as 5.7 nM.

In the case of `COC(=O)N[C@H](C(=O)N1[C@H](c2nc(Cl)c(-c3cc4c5c(c3)OCc3cc(-c6[nH]c([C@@H]7C[C@@H]8CCCC[C@@H]8N7C(=O)[C@@H](NC(=O)OC)C(C)(C)C(F)(F)F)nc6Cl)cc(c3-5)OC4)[nH]2)C[C@@H]2CCCC[C@@H]21)C(C)(C)C(F)(F)F` [Compound 38, dimethyl ((2S,2′S)-((2S,2′S,3aS,3a′S,7aS,7a′S)-((5,10-dihydrochromeno[5,4,3-cde]chromene-2,7-diyl)bis(4-chloro-1H-imidazole-5,2-diyl))bis(octahydro-1H-indole-2,1-diyl))bis(4,4,4-trifluoro-3,3-dimethyl-1-oxobutane-1,2-diyl))dicarbamate], the EC50 was 25.6 nM.

`CC[C@H](C)[C@H](NC(=O)OC)C(=O)N1[C@H](c2nc(Cl)c(-c3cc4c5c(c3)OCc3cc(-c6[nH]c([C@@H]7C[C@@H]8CCCC[C@@H]8N7C(=O)[C@@H](NC(=O)OC)[C@@H](C)CC)nc6Cl)cc(c3-5)OC4)[nH]2)C[C@@H]2CCCC[C@@H]21` [Compound 39, dimethyl ((2S,2′S,3S,3′S)-((2S,2′S,3aS,3a′S,7aS,7a′S)-((5,10-dihydrochromeno[5,4,3-cde]chromene-2,7-diyl)bis(4-chloro-1H-imidazole-5,2-diyl))bis(octahydro-1H-indole-2,1-diyl))bis(3-methyl-1-oxopentane-1,2-diyl))dicarbamate]: the EC50 stood at 10.9 nM.

As to `COC(=O)N[C@H](C(=O)N1[C@@H](C)CC[C@H]1c1nc(C(C)C)c(-c2cc3c4c(c2)OCc2cc(-c5[nH]c([C@@H]6CC[C@H](C)N6C(=O)[C@@H](NC(=O)OC)C(C)C)nc5C(C)C)cc(c2-4)OC3)[nH]1)C(C)C` [Compound 40, dimethyl ((2S,2′S)-((2S,2′S,5S,5′S)-((5,10-dihydrochromeno[5,4,3-cde]chromene-2,7-diyl)bis(4-isopropyl-1H-imidazole-5,2-diyl))bis(2-methylpyrrolidine-5,1-diyl))bis(3-methyl-1-oxobutane-1,2-diyl))dicarbamate], the EC50 was 5.6 nM.

Consider `CC[C@H](C)[C@H](NC(=O)OC)C(=O)N1[C@@H](C)CC[C@H]1c1nc(C(C)C)c(-c2cc3c4c(c2)OCc2cc(-c5[nH]c([C@@H]6CC[C@H](C)N6C(=O)[C@@H](NC(=O)OC)[C@@H](C)CC)nc5C(C)C)cc(c2-4)OC3)[nH]1` [Compound 41, dimethyl ((2S,2′S,3S,3′S)-((2S,2′S,5S,5′S)-((5,10-dihydrochromeno[5,4,3-cde]chromene-2,7-diyl)bis(4-isopropyl-1H-imidazole-5,2-diyl))bis(2-methylpyrrolidine-5,1-diyl))bis(3-methyl-1-oxopentane-1,2-diyl))dicarbamate], for which the half-maximal effective concentration (EC50) was 2.8 nM.

In the case of `COC(=O)N[C@H](C(=O)N1[C@@H](C)CC[C@H]1c1nc(C(C)C)c(-c2cc3c4c(c2)OCc2cc(-c5[nH]c([C@@H]6CC[C@H](C)N6C(=O)[C@@H](NC(=O)OC)C(C)(C)C(F)(F)F)nc5C(C)C)cc(c2-4)OC3)[nH]1)C(C)(C)C(F)(F)F` [Compound 42, dimethyl ((2S,2′S)-((2S,2′S,5S,5′S)-((5,10-dihydrochromeno[5,4,3-cde]chromene-2,7-diyl)bis(4-isopropyl-1H-imidazole-5,2-diyl))bis(2-methylpyrrolidine-5,1-diyl))bis(4,4,4-trifluoro-3,3-dimethyl-1-oxobutane-1,2-diyl))dicarbamate], the EC50 turned out to be 1.9 nM.

`COC(=O)N[C@H](C(=O)N1[C@@H](C)CC[C@H]1c1nc(Cl)c(-c2cc3c4c(c2)OCc2cc(-c5[nH]c([C@@H]6CC[C@H](C)N6C(=O)[C@@H](NC(=O)OC)C(C)C)nc5C(C)C)cc(c2-4)OC3)[nH]1)C(C)C` [Compound 43, methyl ((S)-1-((2S,5S)-2-(5-(7-(4-chloro-2-((2S,5S)-1-((methoxycarbonyl)-L-valyl)-5-methylpyrrolidin-2-yl)-1H-imidazol-5-yl)-5,10-dihydrochromeno[5,4,3-cde]chromen-2-yl)-4-isopropyl-1H-imidazol-2-yl)-5-methylpyrrolidin-1-yl)-3-methyl-1-oxobutan-2-yl)carbamate]: the 50% effective concentration (EC50) amounted to 1.6 nM.

As for `CC[C@H](C)[C@H](NC(=O)OC)C(=O)N1[C@@H](C)CC[C@H]1c1nc(Cl)c(-c2cc3c4c(c2)OCc2cc(-c5[nH]c([C@@H]6CC[C@H](C)N6C(=O)[C@@H](NC(=O)OC)[C@@H](C)CC)nc5C(C)C)cc(c2-4)OC3)[nH]1` [Compound 44, methyl ((2S,3S)-1-((2S,5S)-2-(5-(7-(4-chloro-2-((2S,5S)-1-((methoxycarbonyl)-L-isoleucyl)-5-methylpyrrolidin-2-yl)-1H-imidazol-5-yl)-5,10-dihydrochromeno[5,4,3-cde]chromen-2-yl)-4-isopropyl-1H-imidazol-2-yl)-5-methylpyrrolidin-1-yl)-3-methyl-1-oxopentan-2-yl)carbamate], the EC50 came to 1.9 nM.
